Experimental data as given in US11008314B2, “Compounds and methods for modulating interleukin-2-inducible t-cell kinase” (CORVUS PHARMACEUTICALS, INC., priority 2016, dated 2021).

Columns and labels:
[1] = test system: Jurkat IL2; assay: Jurkat IL2 IC50; assay type: cell-based; settings: Homo sapiens, Jurkat cells
[2] = biological target: BTK (Homo sapiens (Human), UniProt Q06187); assay: IC50 against BTK; assay type: biochemical
[3] = Mouse PO PK; settings: in vivo, 10 mg/kg, PO 10 mpk
[4] = Rat PO PK; settings: in vivo, 6 mg/kg, PO 6 mpk
[5] = biological target: TXK (Homo sapiens (Human), UniProt P42681); assay: IC50 against TXK; assay type: biochemical; settings: for TXK/ITK: ratio of TXK IC50 to ITK IC50
TXK, sequence (P42681 whole entry, species assumed): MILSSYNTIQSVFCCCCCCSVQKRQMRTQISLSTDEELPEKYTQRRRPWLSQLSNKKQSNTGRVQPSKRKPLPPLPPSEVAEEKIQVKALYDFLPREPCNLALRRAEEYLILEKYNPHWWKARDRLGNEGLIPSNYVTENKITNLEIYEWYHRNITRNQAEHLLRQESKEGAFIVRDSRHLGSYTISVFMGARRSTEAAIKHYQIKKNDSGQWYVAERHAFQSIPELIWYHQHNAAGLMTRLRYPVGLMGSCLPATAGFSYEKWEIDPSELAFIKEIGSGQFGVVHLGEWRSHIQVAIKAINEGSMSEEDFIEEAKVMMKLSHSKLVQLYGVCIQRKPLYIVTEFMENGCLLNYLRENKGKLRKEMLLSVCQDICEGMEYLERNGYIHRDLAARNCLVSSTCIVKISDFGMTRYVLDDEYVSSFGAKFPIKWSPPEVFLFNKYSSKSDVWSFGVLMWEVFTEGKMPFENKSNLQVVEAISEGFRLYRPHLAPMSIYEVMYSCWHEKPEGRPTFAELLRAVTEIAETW

[6] = biological target: ITK (Homo sapiens (Human), UniProt Q08881); assay: IC50 against ITK; assay type: biochemical
ITK, sequence (Q08881 whole entry): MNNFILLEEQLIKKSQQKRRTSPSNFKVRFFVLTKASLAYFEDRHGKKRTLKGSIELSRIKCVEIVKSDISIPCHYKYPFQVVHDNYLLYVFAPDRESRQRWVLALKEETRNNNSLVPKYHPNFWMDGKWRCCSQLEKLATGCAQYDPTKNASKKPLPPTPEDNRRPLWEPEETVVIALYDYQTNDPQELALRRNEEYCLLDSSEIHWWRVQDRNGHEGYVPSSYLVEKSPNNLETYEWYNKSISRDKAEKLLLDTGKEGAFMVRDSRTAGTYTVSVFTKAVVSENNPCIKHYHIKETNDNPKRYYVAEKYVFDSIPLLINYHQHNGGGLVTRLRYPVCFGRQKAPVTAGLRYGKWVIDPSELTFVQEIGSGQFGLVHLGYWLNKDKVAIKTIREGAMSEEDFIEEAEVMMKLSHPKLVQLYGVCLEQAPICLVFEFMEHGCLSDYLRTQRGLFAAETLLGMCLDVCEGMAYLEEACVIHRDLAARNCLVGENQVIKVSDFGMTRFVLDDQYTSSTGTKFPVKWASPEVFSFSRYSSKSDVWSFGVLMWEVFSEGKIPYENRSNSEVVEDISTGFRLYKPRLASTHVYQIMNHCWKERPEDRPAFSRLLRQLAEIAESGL

[7] = biological target: JAK3 (Homo sapiens (Human), UniProt P52333); assay: IC50 against JAK3; assay type: biochemical
JAK3, sequence (P52333 whole entry, species assumed): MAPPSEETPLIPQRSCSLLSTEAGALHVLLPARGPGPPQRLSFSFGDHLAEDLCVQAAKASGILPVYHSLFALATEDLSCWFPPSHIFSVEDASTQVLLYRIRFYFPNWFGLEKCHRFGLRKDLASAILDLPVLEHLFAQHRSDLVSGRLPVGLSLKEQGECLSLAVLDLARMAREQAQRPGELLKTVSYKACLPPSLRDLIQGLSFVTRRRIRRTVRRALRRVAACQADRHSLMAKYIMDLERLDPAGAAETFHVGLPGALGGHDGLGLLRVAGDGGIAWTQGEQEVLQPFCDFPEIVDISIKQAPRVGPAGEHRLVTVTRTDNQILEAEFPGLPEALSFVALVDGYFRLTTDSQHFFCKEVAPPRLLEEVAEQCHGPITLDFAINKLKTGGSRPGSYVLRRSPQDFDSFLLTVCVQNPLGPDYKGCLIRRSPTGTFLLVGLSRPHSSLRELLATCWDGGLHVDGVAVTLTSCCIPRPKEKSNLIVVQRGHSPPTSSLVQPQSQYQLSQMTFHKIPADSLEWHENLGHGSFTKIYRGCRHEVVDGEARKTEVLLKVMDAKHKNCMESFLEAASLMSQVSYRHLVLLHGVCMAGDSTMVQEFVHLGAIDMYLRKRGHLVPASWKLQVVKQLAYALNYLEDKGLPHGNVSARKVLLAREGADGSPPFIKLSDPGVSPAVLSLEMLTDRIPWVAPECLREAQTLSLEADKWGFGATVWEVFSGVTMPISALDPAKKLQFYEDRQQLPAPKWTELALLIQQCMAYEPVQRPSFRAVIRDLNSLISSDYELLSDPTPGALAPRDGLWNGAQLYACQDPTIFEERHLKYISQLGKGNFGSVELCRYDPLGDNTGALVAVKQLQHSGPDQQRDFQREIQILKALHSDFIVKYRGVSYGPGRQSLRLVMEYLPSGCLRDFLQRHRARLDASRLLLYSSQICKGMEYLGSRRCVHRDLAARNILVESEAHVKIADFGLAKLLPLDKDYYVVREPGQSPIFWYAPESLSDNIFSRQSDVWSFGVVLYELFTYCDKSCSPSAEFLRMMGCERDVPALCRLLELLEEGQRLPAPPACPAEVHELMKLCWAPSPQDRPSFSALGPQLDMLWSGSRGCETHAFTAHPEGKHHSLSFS

BTK, sequence (Q06187 whole entry, species assumed): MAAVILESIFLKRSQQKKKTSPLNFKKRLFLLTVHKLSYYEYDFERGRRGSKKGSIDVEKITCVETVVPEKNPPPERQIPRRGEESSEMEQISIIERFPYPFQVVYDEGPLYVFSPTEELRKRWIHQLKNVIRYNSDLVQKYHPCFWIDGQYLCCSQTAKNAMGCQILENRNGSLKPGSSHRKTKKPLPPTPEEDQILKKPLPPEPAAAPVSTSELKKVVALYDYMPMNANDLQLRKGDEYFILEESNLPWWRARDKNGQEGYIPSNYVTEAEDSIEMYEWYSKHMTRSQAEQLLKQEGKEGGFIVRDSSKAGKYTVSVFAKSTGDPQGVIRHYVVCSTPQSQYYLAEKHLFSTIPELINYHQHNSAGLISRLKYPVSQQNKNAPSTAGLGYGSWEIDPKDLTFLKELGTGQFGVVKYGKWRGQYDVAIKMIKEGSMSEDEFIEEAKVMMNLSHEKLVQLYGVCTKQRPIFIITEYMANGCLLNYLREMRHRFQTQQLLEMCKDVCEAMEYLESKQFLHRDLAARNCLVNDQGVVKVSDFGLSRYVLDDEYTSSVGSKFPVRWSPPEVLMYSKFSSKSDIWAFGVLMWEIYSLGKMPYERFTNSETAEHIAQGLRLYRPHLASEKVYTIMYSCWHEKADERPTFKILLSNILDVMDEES

Structure (SMILES)	IC50 [1] [nM]	IC50 [2] [nM]	AUC(0-t) [3] [ng·h/mL]	Cmax [3] [ng/mL]	bioavailability [3] [%]	AUC(0-t) [4] [ng·h/mL]	Cmax [4] [ng/mL]	bioavailability [4] [%]	IC50 [5] [nM]	TXK/ITK [5]	IC50 [6] [nM]	IC50 [7] [nM]
C=CC(=O)N1CCN(C(=O)c2cc(Sc3cnc(NC(=O)C4CC4)s3)c(C)cc2OC)CC1 [Compound 1]	10	100 to 1000	335	613	20.1	10.9	97	10.9	< 10	7.378	< 10	100 to 1000
C=CC(=O)N1CCN(C(=O)c2cc(Sc3cnc(NC(=O)C4CC4)s3)c(C)cc2OC)C[C@H]1C [Compound 21]	53	100 to 1000	215	292	10.5	18.1	148	18.1	10 to 100	22.223	< 10	100 to 1000
C=CC(=O)N1CCCN(C(=O)c2cc(Sc3cnc(NC(=O)c4cccc(CN(C)C)c4)s3)c(C)cc2OC)CC1 [Compound 33]	100	100 to 1000				0.4	15.7	0.4	1000 to 10000	239.91	< 10	1000 to 10000
C=CC(=O)N1CCCN(C(=O)c2cc(Sc3cnc(NC(=O)C4CC4)s3)c(C)cc2OC)C[C@H]1C [Compound 44]	31	100 to 1000	226	368	9.8	12.5	75	12.5	100 to 1000			1000 to 10000
C=CC(=O)N1CCCN(C(=O)c2cc(Sc3cnc(NC(=O)c4ccc(F)c(CN(C)C)c4)s3)c(C)cc2OC)CC1 [Compound 50]	36	100 to 1000				3.4	25.2	3.4	1000 to 10000	230.63	< 10	1000 to 10000
C=CC(=O)N1CCN(C(=O)c2cc(Sc3cnc(NC(=O)c4ccsc4)s3)c(C)cc2OC)CC1 [Compound 90]	33	10 to 100	419	527	20				< 10	8.3141	< 10	10 to 100
C=CC(=O)N1C[C@H]2CC[C@@H](C1)N2C(=O)c1cc(Sc2cnc(NC(=O)c3ccsc3)s2)c(C)cc1OC [Compound 143, N-(5-((5-((1R,5S)-3-acryloyl-3,8-diazabicyclo[3.2.1]octane-8-carbonyl)-4-methoxy-2-methylphenyl)thio)thiazol-2-yl)thiophene-3-carboxamide]		< 10							< 10	3.51	< 10	10 to 100
C=CC(=O)N1CCN(C(=O)c2cc(Sc3cnc(NC(=O)c4ccsc4)s3)c(C)cc2OC)[C@@H](C)C1 [Compound 144, (S)-N-(5-((5-(4-acryloyl-2-methylpiperazine-1-carbonyl)-4-methoxy-2-methylphenyl)thio)thiazol-2-yl)thiophene-3-carboxamide]		10 to 100							10 to 100	18.84	< 10	100 to 1000
C=CC(=O)N1CCC2(C1)CN(C(=O)c1cc(Sc3cnc(NC(=O)c4ccsc4)s3)c(C)cc1OC)C2 [Compound 145, N-(5-((5-(6-acryloyl-2,6-diazaspiro[3.4]octane-2-carbonyl)-4-methoxy-2-methylphenyl)thio)thiazol-2-yl)thiophene-3-carboxamide]		< 10							< 10	3.86	< 10	10 to 100
C=CC(=O)N1CC[C@@H](N(C)C(=O)c2cc(Sc3cnc(NC(=O)c4ccsc4)s3)c(C)cc2OC)C1 [Compound 146, (R)-N-(5-((5-((1-acryloylpyrrolidin-3-yl)(methyl)carbamoyl)-4-methoxy-2-methylphenyl)thio)thiazol-2-yl)thiophene-3-carboxamide]		< 10							< 10	3.19	< 10	< 10
C=CC(=O)N1CCCN(C(=O)c2cc(Sc3cnc(Nc4ccccn4)s3)c(C)cc2OC)C[C@H]1C(C)C [Compound 147, (R)-l-(2-isopropyl-4-(2-methoxy-4-methyl-5-((2-(pyridin-2-ylamino)thiazol-5-yl)thio)benzoyl)-1,4-diazepan-1-yl)prop-2-en-1-one]		10 to 100							100 to 1000	29.58	< 10	1000 to 10000
C=CC(=O)N1CCCN(C(=O)c2cc(Sc3cnc(NC(=O)C4CC4)s3)c(C)cc2OC)C[C@H]1C(C)C [Compound 148, (R)-N-(5-((5-(4-acryloyl-3-isopropyl-1,4-diazepane-1-carbonyl)-4-methoxy-2-methylphenyl)thio)thiazol-2-yl)cyclopropanecarboxamide]		100 to 1000							100 to 1000	82.31	< 10	≥ 10000
C=CC(=O)N1CCCN(C(=O)c2cc(Sc3cnc(NC(=O)c4ccsc4)s3)c(C)cc2OC)C[C@H]1C(C)C [Compound 149, (R)-N-(5-((5-(4-acryloyl-3-isopropyl-1,4-diazepane-l-carbonyl)-4-methoxy-2-methylphenyl)thio)thiazol-2-yl)thiophene-3-carboxamide]		10 to 100							100 to 1000	171.45	< 10	≥ 10000
C=CC(=O)N1[C@@H]2CC[C@H]1CN(C(=O)c1cc(Sc3cnc(Nc4ccccn4)s3)c(C)cc1OC)C2 [Compound 150, 1-((1R, 5S)-3-(2-methoxy-4-methyl-5-((2-(pyridin-2-ylamino)thiazol-5-yl)thio)benzoyl)-3,8-diazabicyclo[3.2.1]octan-8-yl)prop-2-en-1-one]		< 10							< 10	1.76	< 10	10 to 100
C=CC(=O)N1CCN(C(=O)c2cc(Sc3cnc(Nc4ccccn4)s3)c(C)cc2OC)[C@@H](C)C1 [Compound 151, (S)-1-(4-(2-methoxy-4-methyl-5-((2-(pyridin-2-ylamino)thiazol-5-yl)thio)benzoyl)-3-methylpiperazin-1-yl)prop-2-en-1-one]		10 to 100							< 10	6.43	< 10	10 to 100
C=CC(=O)N1CCC2(C1)CN(C(=O)c1cc(Sc3cnc(Nc4ccccn4)s3)c(C)cc1OC)C2 [Compound 152, 1-(2-(2-methoxy-4-methyl-5-((2-(pyridin-2-ylamino)thiazol-5-yl)thio)benzoyl)-2,6-diazaspiro[3.4]octan-6-yl)prop-2-en-1-one]		10 to 100							< 10	2.06	< 10	100 to 1000
C=CC(=O)N1CCN(C(=O)c2cc(Sc3cnc(Nc4ccccn4)s3)c(C)cc2OC)C[C@H]1C#N [Compound 153, (S)-1-acryloyl-4-(2-methoxy-4-methyl-5-((2-(pyridin-2-ylamino)thiazol-5-yl)thio)benzoyl)piperazine-2-carbonitrile]		< 10								0.61	< 10	< 10
C=CC(=O)N1CC[C@@H](N(C)C(=O)c2cc(Sc3cnc(Nc4ccccn4)s3)c(C)cc2OC)C1 [Compound 154, (R)-N-(1-acryloylpyrrolidin-3-yl)-2-methoxy-N,4-dimethyl-5-((2-(pyridin-2-ylamino)thiazol-5-yl)thio)benzamide]		< 10							< 10	1.01	< 10	< 10
C=CC(=O)N1[C@@H]2CC[C@H]1CN(C(=O)c1cc(Sc3cnc(NC(=O)c4ccsc4)s3)c(C)cc1OC)C2 [Compound 155, N-(5-((5-((1R, 5S)-8-acryloyl-3,8-diazabicyclo[3.2.1]octane-3-carbonyl)-4-methoxy-2-methylphenyl)thio)thiazol-2-yl)thiophene-3-carboxamide]		< 10							< 10	2.73	< 10	10 to 100
C=CC(=O)N1CCN(C(=O)c2cc(Sc3cnc(NC(=O)c4ccsc4)s3)c(C)cc2OC)C[C@H]1C#N [Compound 156, (S)-N-(5-((5-(4-acryloyl-3-cyanopiperazine-1-carbonyl)-4-methoxy-2-methylphenyl)thio)thiazol-2-yl)thiophene-3-carboxamide]		< 10							< 10	3.09	< 10	< 10
